Measurements reported in US20190085024A1, “Alpha-Ketoamide Inhibitors Of Cysteine Proteases” (Phelix Therapeutics, priority 2017, published 2019).

Key:
Cathepsin L = Cathepsin L (Homo sapiens, UniProt P07711); experiment: Cathepsin L enzyme assay; format: biochemical; details: Ki by Morrison equation; pH 5.5, substrate Z-Phe-Arg-Amc; read-out: Cat L
Source text: Two wells contained DMSO only for controls.
Velocity was converted to μM/sec.

Calpain = Calpain enzyme assay; format: biochemical; details: Ki by Morrison equation; pH 7.5, 5 mM CaCl2

Cathepsin L, sequence (P07711 114-333, species assumed): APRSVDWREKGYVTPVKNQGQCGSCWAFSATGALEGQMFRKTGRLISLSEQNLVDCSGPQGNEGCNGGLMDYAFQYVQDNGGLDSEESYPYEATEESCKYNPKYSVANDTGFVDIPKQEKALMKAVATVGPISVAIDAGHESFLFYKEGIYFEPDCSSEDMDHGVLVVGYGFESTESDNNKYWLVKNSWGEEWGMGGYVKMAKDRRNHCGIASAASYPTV

Ki (Cathepsin L) [nM] | Ki (Calpain) [nM] | SMILES
0.84 | 2.05 | CCC(C)C(NC(=O)C(CC(C)C)NC(=O)OCc1ccccc1)C(=O)C(=O)NC(C)C(=O)NC(Cc1ccc2ccccc2c1)C(N)=O (stereo not drawn) [PHELIX295, benzyl (1-((1-((1-((1-amino-3-(naphthalen-2-yl)-1-oxopropan-2-yl)amino)-1-oxopropan-2-yl)amino)-4-methyl-1,2-dioxohexan-3-yl)amino)-4-methyl-1-oxopentan-2-yl)carbamate]
0.6 | 8.24 | CC[C@H](C)C(NC(=O)[C@H](CC(C)C)NC(=O)OCc1ccccc1)C(=O)C(=O)NCC(=O)N[C@H](Cc1ccc2ccccc2c1)C(N)=O (stereo partly drawn) [PHELIX304, benzyl (1-((1-((2-((1-amino-3-(naphthalen-2-yl)-1-oxopropan-2-yl)amino)-2-oxoethyl)amino)-4-methyl-1,2-dioxohexan-3-yl)amino)-4-methyl-1-oxopentan-2-yl)carbamate]
19.4 | 178 | CCC(C)C(NC(=O)C(CC(C)C)NC(=O)OCc1ccccc1)C(=O)C(=O)N1CC(C(=O)NCc2ccc3ccccc3c2)C1 (stereo not drawn) [PHELIX363, benzyl (4-methyl-1-((4-methyl-1-(3-((naphthalen-2-ylmethyl)carbamoyl)azetidin-1-yl)-1,2-dioxohexan-3-yl)amino)-1-oxopentan-2-yl)carbamate]
11.3 | 37.1 | CCC(C)C(NC(=O)C(CC(C)C)NC(=O)C(Cc1ccccc1)NC(C)=O)C(=O)C(=O)NC(CCCNC(=N)N)C(N)=O (stereo not drawn) [PHELIX345]
3.82 | 1.63 | CCC(C)C(NC(=O)C(CC(C)C)NC(=O)OCc1ccccc1)C(=O)C(=O)NCC(=O)NC(Cc1ccccc1)C(N)=O (stereo not drawn) [PHELIX318, benzyl (1-((1-((2-((1-amino-1-oxo-3-phenylpropan-2-yl)amino)-2-oxoethyl)amino)-4-methyl-1,2-dioxohexan-3-yl)amino)-4-methyl-1-oxopentan-2-yl)carbamate]
315 | 2570 | CCC(C)C(NC(=O)C(CC(C)C)NC(=O)OCc1ccccc1)C(=O)C(=O)NC1(C(=O)NC(Cc2ccc3ccccc3c2)C(N)=O)CC1 (stereo not drawn) [PHELIX298, benzyl (1-((1-((1-((1-amino-3-(naphthalen-2-yl)-1-oxopropan-2-yl)carbamoyl)cyclopropyl)amino)-4-methyl-1,2-dioxohexan-3-yl)amino)-4-methyl-1-oxopentan-2-yl)carbamate]
29.1 | 44.1 | CCC(C)C(NC(=O)C(CC(C)C)NC(=O)OCc1ccccc1)C(=O)C(=O)NC(Cc1ccc2ccccc2c1)C(=O)N(C)C (stereo not drawn) [PHELIX360, benzyl (1-((1-((1-(dimethylamino)-3-(naphthalen-2-yl)-1-oxopropan-2-yl)amino)-4-methyl-1,2-dioxohexan-3-yl)amino)-4-methyl-1-oxopentan-2-yl)carbamate]
19.6 | 10.1 | CCC(C)C(NC(=O)C(CC(C)C)NC(=O)CN1CCOCC1)C(=O)C(=O)NC(Cc1ccc2ccccc2c1)C(N)=O (stereo not drawn) [PHELIX354, N-(1-amino-3-(naphthalen-2-yl)-1-oxopropan-2-yl)-4-methyl-3-(4-methyl-2-(2-morpholinoacetamido)pentanamido)-2-oxohexanamide]
117 | 32.1 | CCC(C)C(NC(=O)C(CC(C)C)NC(=O)OCc1ccccc1)C(=O)C(=O)N1CC(C(=O)NCc2n[nH]c3c2CCC3)C1 (stereo not drawn) [PHELIX364, benzyl (4-methyl-1-((4-methyl-1,2-dioxo-1-(3-(((1,4,5,6-tetrahydrocyclopenta[c]pyrazol-3-yl)methyl)carbamoyl)azetidin-1-yl)hexan-3-yl)amino)-1-oxopentan-2-yl)carbamate]
< 0.1 | 83.9 | CCC(C)C(NC(=O)C(Cc1ccccc1)NC(=O)Cc1ccccc1)C(=O)C(=O)NCC(=O)NC(Cc1ccc2ccccc2c1)C(N)=O (stereo not drawn) [PHELIX321, N-(2-((1-amino-3-(naphthalen-2-yl)-1-oxopropan-2-yl)amino)-2-oxoethyl)-4-methyl-2-oxo-3-(3-phenyl-2-(2-phenylacetamido)propanamido)hexanamide]
0.48 | 1.93 | CCC(C)C(NC(=O)C(CC(C)C)NC(=O)CN1CCOCC1)C(=O)C(=O)NCC(=O)N(C)C(Cc1ccccc1)C(N)=O (stereo not drawn) [PHELIX352, N-(2-((1-amino-1-oxo-3-phenylpropan-2-yl)(methyl)amino)-2-oxoethyl)-4-methyl-3-(4-methyl-2-(2-morpholinoacetamido)pentanamido)-2-oxohexanamide]
1.37 | 19.8 | CCC(C)C(NC(=O)C(CC(C)C)NC(=O)OCc1ccccc1)C(=O)C(=O)NC(CCC(N)=O)C(=O)NC(Cc1ccc2ccccc2c1)C(N)=O (stereo not drawn) [PHELIX317, benzyl (1-((1-((5-amino-1-((1-amino-3-(naphthalen-2-yl)-1-oxopropan-2-yl)amino)-1,5-dioxopentan-2-yl)amino)-4-methyl-1,2-dioxohexan-3-yl)amino)-4-methyl-1-oxopentan-2-yl)carbamate]
3.33 | 8.01 | CCC(C)C(NC(=O)C(CC(C)C)NC(=O)OCc1ccccc1)C(=O)C(=O)NC(CC(N)=O)C(=O)NC(Cc1ccc2ccccc2c1)C(N)=O (stereo not drawn) [PHELIX316, benzyl (1-((1-((4-amino-1-((1-amino-3-(naphthalen-2-yl)-1-oxopropan-2-yl)amino)-1,4-dioxobutan-2-yl)amino)-4-methyl-1,2-dioxohexan-3-yl)amino)-4-methyl-1-oxopentan-2-yl)carbamate]
1.67 | 9.26 | CCC(C)C(NC(=O)C(CC(C)(C)C)NC(=O)Cc1ccccc1)C(=O)C(=O)NCC(=O)NC(Cc1ccc2ccccc2c1)C(N)=O (stereo not drawn) [PHELIX331, N-(2-((1-amino-3-(naphthalen-2-yl)-1-oxopropan-2-yl)amino)-2-oxoethyl)-3-(4,4-dimethyl-2-(2-phenylacetamido)pentanamido)-4-methyl-2-oxohexanamide]
77.6 | 446 | CCC(C)C(C(=O)C(=O)NCC(=O)NC(Cc1ccc2ccccc2c1)C(N)=O)N(C)C(=O)C(CC(C)C)NC(=O)OCc1ccccc1 (stereo not drawn) [PHELIX306, benzyl (1-((1-((2-((1-amino-3-(naphthalen-2-yl)-1-oxopropan-2-yl)amino)-2-oxoethyl)amino)-4-methyl-1,2-dioxohexan-3-yl)(methyl)amino)-4-methyl-1-oxopentan-2-yl)carbamate]
137 | 442 | CCC(C)C(NC(=O)C(CC(C)C)NC(=O)OCc1ccccc1)C(=O)C(=O)N1CC(C(=O)NCc2ccc(C(=N)N)cc2)C1 (stereo not drawn) [PHELIX366, benzyl (1-((1-(3-((4-carbamimidoylbenzyl)carbamoyl)azetidin-1-yl)-4-methyl-1,2-dioxohexan-3-yl)amino)-4-methyl-1-oxopentan-2-yl)carbamate]
239 | 1210 | CCC(C)C(NC(=O)OCc1ccccc1)C(=O)C(=O)NCC(=O)NC(Cc1ccc2ccccc2c1)C(N)=O (stereo not drawn) [PHELIX325, benzyl (1-((2-((1-amino-3-(naphthalen-2-yl)-1-oxopropan-2-yl)amino)-2-oxoethyl)amino)-4-methyl-1,2-dioxohexan-3-yl)carbamate]

SMILES | Ki (Cathepsin L) [nM] | Ki (Calpain) [nM]
CC[C@H](C)C(NC(=O)[C@H](CC#N)NC(=O)Cc1ccccc1)C(=O)C(=O)NCC(=O)N[C@@H](Cc1ccc2ccccc2c1)C(N)=O (stereo partly drawn) [PHELIX337, N-(2-((1-amino-3-(naphthalen-2-yl)-1-oxopropan-2-yl)amino)-2-oxoethyl)-3-(3-cyano-2-(2-phenylacetamido)propanamido)-4-methyl-2-oxohexanamide] | 8.48 | 224
